Laboratory results reported in article PMC7029871, “Development and validation of a sensitive LC-MS/MS method for the quantitation of IMB-YH-4py5-2H, an antituberculosis candidate, and its application to the pharmacokinetic study” (PLoS ONE, 2020).

Legend:
Assay type in all cases: in vitro ADME
[1] = Stability of QC samples in rat plasma; conditions: for %Theoretical, Autosampler: extracted plasma QC; for %Theoretical, Long-term / %Theoretical, 24 h ambient / %Theoretical, freeze-thaw: rat plasma; for %Theoretical, Long-term: 2 weeks at -20°C
Experimental: Six replicates of the QC samples at low, medium and high concentrations subjected to the conditions below were evaluated for the stability of IMB-4py5-2H in rat plasma. Short-term stability was assessed by the analysis of the QCs kept at room temperature for 24 h, which exceeded the routine preparation time of the samples. Long-term stability was determined by assaying the QCs after storage for 2 weeks at −20°C. Freeze–thaw stability was investigated after three freeze (−20°C)–thaw (room temperature) cycles. Post-preparative stability was assessed by analyzing the extracted QC samples kept in autosampler at 4°C for 24 h.

[2] = Metabolic stability assay in human liver microsomes; conditions: pH 7.4, HLMs 0.1 mg/mL, 37°C, NADPH
Experimental: IMB-YH-4py5-2H was incubated at 37°C for 0, 15, 30, 45, and 60 min in human liver microsomes (HLMs) for the metabolic stability study. The incubation system included 0.1 mg/mL pooled liver microsomes, 100 mM phosphate-buffered saline (PBS, pH 7.4), NADPH regeneration system (the final concentration contained 3.3 mM glucose-6-phosphate, 1.3 mM NADP^+, 0.4 U/mL glucose-6-phosphate dehydrogenase and 3.3 mM MgCl2), and 1 μM IMB-YH-4py5-2H.
(§1) After incubation, the samples were processed as described in “Sample processing”. All experiments were performed in triplicate. The concentration of IMB-YH-4py5-2H was measured using LC-MS/MS analysis.

CYP1A2 = target: T1, CYP1A2 (Homo sapiens, UniProt P05177); assay: Metabolism by recombinant human P450 enzyme; conditions: recombinant CYP1A2 0.05 nmol/mL, 1 μM, 30 min
T1 construct: purchased Corning (Woburn, MA, USA)
T1 sequence (P05177 1-516): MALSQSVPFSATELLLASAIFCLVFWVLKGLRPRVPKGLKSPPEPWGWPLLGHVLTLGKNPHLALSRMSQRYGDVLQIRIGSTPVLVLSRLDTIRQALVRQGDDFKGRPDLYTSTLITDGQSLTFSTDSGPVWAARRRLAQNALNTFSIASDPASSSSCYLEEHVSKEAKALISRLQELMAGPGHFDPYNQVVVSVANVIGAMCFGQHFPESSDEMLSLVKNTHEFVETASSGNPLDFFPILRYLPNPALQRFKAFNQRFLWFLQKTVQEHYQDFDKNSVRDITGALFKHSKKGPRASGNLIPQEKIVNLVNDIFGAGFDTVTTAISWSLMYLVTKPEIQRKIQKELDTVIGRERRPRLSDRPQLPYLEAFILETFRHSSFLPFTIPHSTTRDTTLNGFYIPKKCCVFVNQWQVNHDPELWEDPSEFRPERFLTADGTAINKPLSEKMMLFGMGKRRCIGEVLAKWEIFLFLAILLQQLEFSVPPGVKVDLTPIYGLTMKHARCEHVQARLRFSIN
Experimental: (§2) In addition, to characterize the enzymes that may be involved in microsomal metabolism, IMB-YH-4py5-2H was incubated at 37°C for 30 min with different recombinant human P450 enzymes, i.e., CYP1A2, CYP2A6, CYP2B6, CYP2C8, CYP2C9, CYP2C19, CYP2D6, CYP2E1, CYP3A4 and CYP3A5. The incubation system included CYP isoenzyme at a final concentration of 0.05 nmol/mL, 100 mM PBS (pH 7.4) or 100 mmol/L Tris buffer (pH 7.5, Tris buffer was used in the CYP2C9 and CYP2A6 reaction systems and PBS was used for the other enzymes), NADPH regeneration system, and 1 μM IMB-YH-4py5-2H.
as §1

CYP2B6 = target: T2, CYP2B6 (Homo sapiens, UniProt P20813); assay: Metabolism by recombinant human P450 enzyme; conditions: recombinant CYP2B6 0.05 nmol/mL, 1 μM, 30 min
T2 construct: purchased Corning (Woburn, MA, USA)
T2 sequence (P20813 1-491): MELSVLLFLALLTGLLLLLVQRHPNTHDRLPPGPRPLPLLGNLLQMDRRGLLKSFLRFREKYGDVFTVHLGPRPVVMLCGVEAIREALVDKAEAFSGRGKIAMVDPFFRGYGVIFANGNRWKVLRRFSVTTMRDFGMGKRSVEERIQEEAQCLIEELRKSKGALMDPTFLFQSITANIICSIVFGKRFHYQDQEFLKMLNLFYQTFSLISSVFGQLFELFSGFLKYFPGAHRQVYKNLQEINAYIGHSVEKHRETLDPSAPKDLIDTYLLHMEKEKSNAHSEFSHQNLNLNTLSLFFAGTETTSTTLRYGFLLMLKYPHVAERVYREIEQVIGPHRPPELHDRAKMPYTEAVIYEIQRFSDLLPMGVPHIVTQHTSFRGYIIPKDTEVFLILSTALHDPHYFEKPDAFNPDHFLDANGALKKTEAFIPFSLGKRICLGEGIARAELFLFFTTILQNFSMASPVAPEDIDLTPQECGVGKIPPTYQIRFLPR
Experimental: as §2, §1

CYP2A6 = target: T3, CYP2A6 (Homo sapiens, UniProt P11509); assay: Metabolism by recombinant human P450 enzyme; conditions: recombinant CYP2A6 0.05 nmol/mL, 1 μM, 30 min
T3 construct: purchased Corning (Woburn, MA, USA)
T3 sequence (P11509 1-494): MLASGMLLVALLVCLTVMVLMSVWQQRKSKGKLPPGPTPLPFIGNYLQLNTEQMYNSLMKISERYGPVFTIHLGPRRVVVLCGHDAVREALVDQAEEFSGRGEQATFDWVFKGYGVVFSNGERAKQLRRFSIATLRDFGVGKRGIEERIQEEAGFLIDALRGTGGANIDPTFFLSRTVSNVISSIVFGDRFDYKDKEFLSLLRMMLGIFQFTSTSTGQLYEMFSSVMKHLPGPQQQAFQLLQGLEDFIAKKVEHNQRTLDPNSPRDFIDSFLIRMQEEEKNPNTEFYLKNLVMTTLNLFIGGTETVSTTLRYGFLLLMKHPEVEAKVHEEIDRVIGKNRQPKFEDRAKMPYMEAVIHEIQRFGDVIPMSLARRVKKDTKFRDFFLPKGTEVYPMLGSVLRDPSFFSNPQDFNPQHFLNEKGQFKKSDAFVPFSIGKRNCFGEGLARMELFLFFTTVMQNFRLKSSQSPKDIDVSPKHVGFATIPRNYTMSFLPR
Experimental: as §2, §1

CN(C)C(=O)/C=C/C(=O)c1ccc(-c2ccncc2)cc1.Cl [IMB-YH-4py5-2H, (E)-N,N-dimethyl-4-oxo-4-(4-(pyridin-4-yl)phenyl)but-2-enamide hydrochloride]
%Theoretical, Autosampler ([1]; autosampler 4°C 24 h, nominal 2.5 ng/mL): 100.11 ± 1.20% | %Theoretical, Autosampler ([1]; autosampler 4°C 24 h, nominal 20 ng/mL): 103.26 ± 6.07% | %Theoretical, Autosampler ([1]; autosampler 4°C 24 h, nominal 80 ng/mL): 97.85 ± 4.96% | %Theoretical, Long-term ([1]; nominal 2.5 ng/mL): 92.33 ± 4.21% | %Theoretical, Long-term ([1]; nominal 20 ng/mL): 91.65 ± 3.91% | %Theoretical, Long-term ([1]; nominal 80 ng/mL): 94.98 ± 7.26% | %Theoretical, 24 h ambient ([1]; room temperature 24 h, nominal 2.5 ng/mL): 94.35 ± 3.65% | %Theoretical, 24 h ambient ([1]; room temperature 24 h, nominal 20 ng/mL): 91.96± 5.79% | %Theoretical, 24 h ambient ([1]; room temperature 24 h, nominal 80 ng/mL): 103.77 ±2.51% | %Theoretical, freeze-thaw ([1]; three freeze-thaw cycles, nominal 2.5 ng/mL): 90.11 ± 6.19% | %Theoretical, freeze-thaw ([1]; three freeze-thaw cycles, nominal 20 ng/mL): 88.79 ± 3.27% | %Theoretical, freeze-thaw ([1]; three freeze-thaw cycles, nominal 80 ng/mL): 94.17 ± 5.10% | stability in rat plasma ([1]; room temperature 24 h, -20°C 2 weeks, three freeze-thaw cycles, autosampler 4°C 24 h): stable | half-life at 1 μM [2]: < 15 min | metabolism by CYP isozyme (CYP1A2): high metabolic activity | metabolism by CYP isozyme (CYP2B6): high metabolic activity | metabolism by CYP isozyme (CYP2A6): high metabolic activity
